Where a SMILES comes first, the peptide text is derived from it. Bridges are numbered along the chain shown (N, C = ends). [ ]: non-standard residue; d: D form. The star is where a group is joined. Bip = N[C@@H](Cc1ccc(-c2ccccc2)cc1)C(=O)O; Phe(3-Me) = Cc1cccc(C[C@H](N)C(=O)O)c1; 4Pal = N[C@@H](Cc1ccncc1)C(=O)O; Cha = N[C@@H](CC1CCCCC1)C(=O)O; Carboxymethyl = O=C(O)C*; NMeA = CN[C@@H](C)C(=O)O; Orn = NCCC[C@H](N)C(=O)O; Aun = NCCCCCCCCCCC(=O)O; Dab = NCC[C@H](N)C(=O)O; AEEA = NCCOCCOCC(=O)O

The term IC50 denotes the concentration at which inhibition is half-maximal.

T1 sequence (Q15116 25-288): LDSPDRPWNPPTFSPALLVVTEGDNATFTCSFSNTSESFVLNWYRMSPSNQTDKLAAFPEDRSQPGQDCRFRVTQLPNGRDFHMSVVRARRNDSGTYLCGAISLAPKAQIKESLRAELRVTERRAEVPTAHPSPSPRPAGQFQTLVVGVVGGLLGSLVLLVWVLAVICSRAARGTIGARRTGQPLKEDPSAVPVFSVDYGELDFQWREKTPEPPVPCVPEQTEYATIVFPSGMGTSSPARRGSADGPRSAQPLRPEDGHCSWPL

This assay concerns the target T1, PD-1/PD-L1 interaction (PE-labeled human PD-L1-Ig binding to Jurkat cell line over-expressing human PD-1) (Homo sapiens, UniProt Q15116).
T1 construct: expressed in transfected cells; host or cells: Jurkat
Kind of assay: Jurkat-PD-1 Cell Binding High-Content Screening Assay (CBA). To be noted: Jurkat-hPD-1 cells, PE-labeled PD-L1-Ig 20 nM final; read-out: Jurkat HPD1 PDL1 IC50. In short, it runs like this: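 Binding of 20 nM (final) PE-tagged PD-L1-Ig to compound-pretreated Jurkat-hPD-1 cells was measured by high-content imaging after 1 h. Pretreatment ran 2 h at 37 °C in DMEM with 10% fetal calf serum.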
`Cc1cccc(C[C@@H]2NC(=O)[C@H](CC(=O)O)NC(=O)[C@H](Cc3ccncc3)NC(=O)[C@H](Cc3ccc(OCC(=O)O)cc3)NC(=O)CSC[C@@H](C(=O)N[C@@H](CCN)C(=O)NCCOCCOCC(=O)NCCCCCCCCCCC(=O)O)NC(=O)[C@H]([C@@H](C)O)NC(=O)[C@H](C(C)C)NC(=O)[C@H](CC3CCCCC3)NC(=O)[C@H](CCN)NC(=O)[C@@H](CC(C)C)NC(=O)[C@H](C)N(C)C(=O)[C@H](Cc3ccc(OCC(=O)O)cc3)NC(=O)[C@H](Cc3ccc(-c4ccccc4)cc3)NC(=O)[C@H](Cc3ccc(OCC(=O)O)cc3)NC2=O)c1` [Example 1360] ({CH2CO}-Y(Carboxymethyl)[4Pal]D[Phe(3-Me)]Y(Carboxymethyl)[Bip]Y(Carboxymethyl)[NMeA][dL][Dab][Cha]VTC[Dab][AEEA][Aun]-OH; thioether N-14): the IC50 is 8.6 nM.

In the case of `Cc1cccc(C[C@@H]2NC(=O)[C@H](CC(=O)O)NC(=O)[C@H](Cc3ccncc3)NC(=O)[C@H](Cc3ccc(OCC(=O)O)cc3)NC(=O)CSC[C@@H](C(=O)N[C@@H](CCCN)C(=O)NCCOCCOCC(=O)NCCCCCCCCCCC(=O)O)NC(=O)[C@H]([C@@H](C)O)NC(=O)[C@H](C(C)C)NC(=O)[C@H](CC3CCCCC3)NC(=O)[C@H](CCN)NC(=O)[C@@H](CC(C)C)NC(=O)[C@H](C)N(C)C(=O)[C@H](Cc3ccc(OCC(=O)O)cc3)NC(=O)[C@H](Cc3ccc(-c4ccccc4)cc3)NC(=O)[C@H](Cc3ccc(OCC(=O)O)cc3)NC2=O)c1` [Example 1361] ({CH2CO}-Y(Carboxymethyl)[4Pal]D[Phe(3-Me)]Y(Carboxymethyl)[Bip]Y(Carboxymethyl)[NMeA][dL][Dab][Cha]VTC[Orn][AEEA][Aun]-OH; thioether N-14), the half-maximal inhibitory concentration (IC50) stood at 16.1 nM.

As for `Cc1cccc(C[C@@H]2NC(=O)[C@H](CC(=O)O)NC(=O)[C@H](Cc3ccc(OCC(=O)O)cc3)NC(=O)[C@H]([C@@H](C)O)NC(=O)CSC[C@@H](C(=O)N[C@@H](CCN)C(=O)NCCOCCOCC(=O)NCCCCCCCCCCC(=O)O)NC(=O)[C@H]([C@@H](C)O)NC(=O)[C@H](C(C)C)NC(=O)[C@H](CC3CCCCC3)NC(=O)[C@H](CC(N)=O)NC(=O)[C@@H](CC(C)C)NC(=O)[C@H](C)N(C)C(=O)[C@H](Cc3ccc(OCC(=O)O)cc3)NC(=O)[C@H](Cc3ccc(-c4ccccc4)cc3)NC(=O)[C@H](Cc3ccc(OCC(=O)O)cc3)NC2=O)c1` [Example 1362] ({CH2CO}-TY(Carboxymethyl)D[Phe(3-Me)]Y(Carboxymethyl)[Bip]Y(Carboxymethyl)[NMeA][dL]N[Cha]VTC[Dab][AEEA][Aun]-OH; thioether N-14), the half-maximal inhibitory concentration (IC50) was 25.1 nM.

In the case of `Cc1cccc(C[C@@H]2NC(=O)[C@H](CC(=O)O)NC(=O)[C@H](Cc3ccc(OCC(=O)O)cc3)NC(=O)[C@H]([C@@H](C)O)NC(=O)CSC[C@@H](C(=O)N[C@@H](CCN)C(=O)NCCOCCOCC(=O)NCCCCCCCCCCC(=O)O)NC(=O)[C@H](CCCN)NC(=O)[C@H](C(C)C)NC(=O)[C@H](CC3CCCCC3)NC(=O)[C@H](CC(N)=O)NC(=O)[C@@H](CC(C)C)NC(=O)[C@H](C)N(C)C(=O)[C@H](Cc3ccc(OCC(=O)O)cc3)NC(=O)[C@H](Cc3ccc(-c4ccccc4)cc3)NC(=O)[C@H](Cc3ccc(OCC(=O)O)cc3)NC2=O)c1` [Example 1363] ({CH2CO}-TY(Carboxymethyl)D[Phe(3-Me)]Y(Carboxymethyl)[Bip]Y(Carboxymethyl)[NMeA][dL]N[Cha]V[Orn]C[Dab][AEEA][Aun]-OH; thioether N-14), the IC50 is 25.3 nM.

For the molecule `Cc1cccc(C[C@@H]2NC(=O)[C@H](CC(=O)O)NC(=O)[C@H](Cc3ccc(OCC(=O)O)cc3)NC(=O)[C@H]([C@@H](C)O)NC(=O)CSC[C@@H](C(=O)N[C@@H](CCN)C(=O)NCCOCCOCC(=O)NCCCCCCCCCCC(=O)O)NC(=O)[C@H](CCC(=O)O)NC(=O)[C@H](C(C)C)NC(=O)[C@H](CC3CCCCC3)NC(=O)[C@H](CC(N)=O)NC(=O)[C@@H](CC(C)C)NC(=O)[C@H](C)N(C)C(=O)[C@H](Cc3ccc(OCC(=O)O)cc3)NC(=O)[C@H](Cc3ccc(-c4ccccc4)cc3)NC(=O)[C@H](Cc3ccc(OCC(=O)O)cc3)NC2=O)c1` [Example 1364] ({CH2CO}-TY(Carboxymethyl)D[Phe(3-Me)]Y(Carboxymethyl)[Bip]Y(Carboxymethyl)[NMeA][dL]N[Cha]VEC[Dab][AEEA][Aun]-OH; thioether N-14), the 50% inhibitory concentration (IC50) amounted to 49.5 nM.

For `Cc1cccc(C[C@@H]2NC(=O)[C@H](CC(=O)O)NC(=O)[C@H](Cc3ccc(OCC(=O)O)cc3)NC(=O)[C@H]([C@@H](C)O)NC(=O)CSC[C@@H](C(=O)N[C@@H](CCCN)C(=O)NCCOCCOCC(=O)NCCCCCCCCCCC(=O)O)NC(=O)[C@H]([C@@H](C)O)NC(=O)[C@H](C(C)C)NC(=O)[C@H](CC3CCCCC3)NC(=O)[C@H](CC(N)=O)NC(=O)[C@@H](CC(C)C)NC(=O)[C@H](C)N(C)C(=O)[C@H](Cc3ccc(OCC(=O)O)cc3)NC(=O)[C@H](Cc3ccc(-c4ccccc4)cc3)NC(=O)[C@H](Cc3ccc(OCC(=O)O)cc3)NC2=O)c1` [Example 1365] ({CH2CO}-TY(Carboxymethyl)D[Phe(3-Me)]Y(Carboxymethyl)[Bip]Y(Carboxymethyl)[NMeA][dL]N[Cha]VTC[Orn][AEEA][Aun]-OH; thioether N-14), the IC50 worked out at 59.7 nM.

Consider `Cc1cccc(C[C@@H]2NC(=O)[C@H](CC(=O)O)NC(=O)[C@H](Cc3ccc(OCC(=O)O)cc3)NC(=O)[C@H]([C@@H](C)O)NC(=O)CSC[C@@H](C(=O)N[C@@H](CCCN)C(=O)NCCOCCOCC(=O)NCCCCCCCCCCC(=O)O)NC(=O)[C@H](CCC(=O)O)NC(=O)[C@H](C(C)C)NC(=O)[C@H](CC3CCCCC3)NC(=O)[C@H](CC(N)=O)NC(=O)[C@@H](CC(C)C)NC(=O)[C@H](C)N(C)C(=O)[C@H](Cc3ccc(OCC(=O)O)cc3)NC(=O)[C@H](Cc3ccc(-c4ccccc4)cc3)NC(=O)[C@H](Cc3ccc(OCC(=O)O)cc3)NC2=O)c1` [Example 1366] ({CH2CO}-TY(Carboxymethyl)D[Phe(3-Me)]Y(Carboxymethyl)[Bip]Y(Carboxymethyl)[NMeA][dL]N[Cha]VEC[Orn][AEEA][Aun]-OH; thioether N-14), for which the half-maximal inhibitory concentration (IC50) was 128 nM.

As for `Cc1cccc(C[C@@H]2NC(=O)[C@H](CC(=O)O)NC(=O)[C@H](Cc3ccc(OCC(=O)O)cc3)NC(=O)[C@H]([C@@H](C)O)NC(=O)CSC[C@@H](C(=O)N[C@@H](CCCN)C(=O)NCCOCCOCC(=O)NCCCCCCCCCCC(=O)O)NC(=O)[C@H](CO)NC(=O)[C@H](C(C)C)NC(=O)[C@H](CC3CCCCC3)NC(=O)[C@H](CC(N)=O)NC(=O)[C@@H](CC(C)C)NC(=O)[C@H](C)N(C)C(=O)[C@H](Cc3ccc(OCC(=O)O)cc3)NC(=O)[C@H](Cc3ccc(-c4ccccc4)cc3)NC(=O)[C@H](Cc3ccc(OCC(=O)O)cc3)NC2=O)c1` [Example 1367] ({CH2CO}-TY(Carboxymethyl)D[Phe(3-Me)]Y(Carboxymethyl)[Bip]Y(Carboxymethyl)[NMeA][dL]N[Cha]VSC[Orn][AEEA][Aun]-OH; thioether N-14), the IC50 was 55.6 nM.

Values taken from US20260070945A1, “MACROCYCLIC IMMUNOMODULATORS” (Bristol-Myers Squibb Company, priority 2022, published 2026).
